According to US12661357B2, “Use of pyrido[1,2-a]pyrimidone analogue” (GUANGZHOU JOYO PHARMATECH CO., LTD, priority 2021, dated 2026):
Where two headings read alike, the source gives them in different places. Blank lines part the entries; values can stand above or below the compound they belong to.

Key:
[1] = system: human-derived colorectal cancer CO-04-0032 subcutaneous xenograft tumor; assay: In vivo efficacy, CO-04-0032 subcutaneous xenograft tumor model; parameters: species or system BALB/c nude mice; conditions: for Tumor volume (Day 28): mean ± SEM
Description: Experimental purpose: Study the in vivo efficacy of the test drug on human-derived colorectal cancer CO-04-0032 subcutaneous xenograft tumor model in nude mice.
Experimental design: • (1) Animals: BALB/c nude mice, female, 6 weeks old, weighing 16-18 grams. […] CO-04-0032 was a PDX model of human-derived colon cancer independently developed by WuXi AppTec New Drug Development Co., Ltd. See Table 5 below for the experimental grouping and dosing regimen.

[2] = system: TE-1 esophageal cancer cells; assay: CTG cell proliferation IC50, TE-1; type: cell-based; conditions: TE-1 cells, read-out: Absolute IC50
Description: (§1) • 2). IC50 value: the concentration of inhibitor when 50% inhibitory effect was achieved; • 3). CAL-27 and RPMI 2650: head and neck cancer cell models; HepG2: hepatocellular cancer cells. CAL-27, RPMI 2650 and HepG2 cells were purchased from ATCC, where ATCC® No. was CRL-2095™, CCL-30™, HB-8065™, respectively. • 4). Both KYSE-150 and TE-1 were esophageal cancer cell models. The KYSE-150 cell line was purchased from DSMZ (German Collection of Microorganisms and Cell Cultures), and the DSMZ No. was ACC375; the TE-1 cell line was purchased from National Collection of Authenticated Cell Cultures, catalog number: TCHu89. • 5). RPMI 1640/F12 medium was a 1:1 mixture of RPMI 1640 medium and F12 medium. • 6). The percentages in 10% FBS in Table 1 and Table 2 were volume percentages. (2) Reagents • 1). FBS (fetal bovine serum) (purchased from ExCell, product number: FND500); • 2). MEM medium (purchased from Hyclone, product number: SH30024.01; • 3). DMEM medium (purchased from Gibco, product number: C11995500BT); • 4). MEM NEAA (purchased from Gibco, product number: 11140-050); • 5). RPMI1640 Culture medium (purchased from Gibco, product number: 11875-119); • 6). F12 Culture medium (purchased from Gibco, product number: 11765-054); (3) Test Article and Positive Control Article
(§2) 2. CTG Method was Used to Determine the Cell Proliferation IC50 of the Compound
(§3) • Step 1: Cells in exponential growth phase were harvested, and viable cells were counted with a Vi-Cell XR cytometer. The cell suspension was adjusted to an appropriate concentration with medium. 90 μL of cell suspension was added to each well of a 96-well cell culture plate, and the final cell concentration was 1500-6000 cells/well. • Step 2: The initial concentration of administration of compound I is 3 μM, and the initial concentration of administration of the control drug Alpelisib and Cisplatin was 10 μM, serially diluted 3-fold, a total of 9 concentration gradients and a DMSO control, the final concentration of DMSO in each well was 0.1%, placed in a 37° C., 5% CO2 incubator for 72 hours. • Step 3: After 72 hours of drug treatment, 50 μL (½ culture volume) CTG solution that was melted and equilibrated to room temperature was added to each well according to the CTG operation instructions. […] After 10 minutes, the fluorescence signal value was measured with an Envision2104 plate reader. […]
(§4) Cell survival rate was calculated using the formula: Vsample/Vvehicle control×100%. Where, Vsample was the reading of the drug treatment group, and Vvehicle control was the average value of the solvent control group. GraphPad Prism 5.0 software was used, and a S-type dosage-survival rate curve was drawn using a nonlinear regression model and IC50 value was calculated.

[3] = system: KYSE-150 esophageal cancer cells; assay: CTG cell proliferation IC50, KYSE-150; type: cell-based; conditions: KYSE-150 cells, read-out: Absolute IC50
Description: as §1, §2, §3, §4

[4] = system: RPMI2650 head and neck cancer cells; assay: CTG cell proliferation IC50, RPMI 2650; type: cell-based; conditions: 72 hours, read-out: Absolute IC50
Description: as §1, §2
(§5) • Step 1: Cells in exponential growth phase were harvested, and viable cells were counted with a Vi-Cell XR cytometer. The cell suspension was adjusted to an appropriate concentration with medium. […] After 10 minutes, the fluorescence signal value was measured with an Envision2104 plate reader. […]
as §4

[5] = system: CAL-27 head and neck cancer cells; assay: CTG cell proliferation IC50, CAL-27; type: cell-based; conditions: CAL-27 cells, 72 hours, read-out: Absolute IC50
Description: as §1, §2, §5, §4

[6] = 5 mg/kg, oral, once a day for 28 days
[7] = 20 mg/kg, vein, once a week, day 28

SMILES: CO[C@H]1C[C@@H]2CC[C@@H](C)[C@@](O)(O2)C(=O)C(=O)N2CCCC[C@H]2C(=O)O[C@H]([C@H](C)C[C@@H]2CC[C@@H](OCCO)[C@H](OC)C2)CC(=O)[C@H](C)/C=C(\C)[C@@H](O)[C@@H](OC)C(=O)[C@H](C)C[C@H](C)/C=C/C=C/C=C/1C [Everolimus, reference compound]
- T/C [1, 6]: 42%
- TGI [1, 6]: 60%
- Tumor volume (Day 28) [1, 6]: 739 ± 206 mm^3

- IC50 ([2]; Homo sapiens, TE-1, 72 h): > 2 µM
- IC50 ([2]; 72 hours): > 3 µM
- IC50 ([3]; Homo sapiens, KYSE-150, 72 h): > 2 µM
- IC50 ([3]; 72 hours): 2.11 µM
SMILES: Cc1nc(NC(=O)N2CCC[C@H]2C(N)=O)sc1-c1ccnc(C(C)(C)C(F)(F)F)c1 [Alpelisib, reference compound]

SMILES: N.N.[Cl][Pt][Cl] [Cisplatin, reference compound]
- IC50 [4]: 4.25 µM
- IC50 [5]: 4.37 µM

SMILES: CN(C)C1CCN(C(=O)c2ccc(NC(=O)Nc3ccc(-c4nc(N5CCOCC5)nc(N5CCOCC5)n4)cc3)cc2)CC1 [PF05212384, reference compound]
- T/C [1, 7]: 68%
- TGI [1, 7]: 44%
- Tumor volume (Day 28) [1, 7]: 971 ± 249 mm^3
